In brackets after ≈: the same amount, converted by molar mass.
Assays:
Format in all cases: functional
[1] = test system: Klebsiella pneumoniae; assay: Antimicrobial activity against Klebsiella pneumoniae ATCC 33495 at >200 ug/ml by microbroth dilution method
[2] = test system: Pseudomonas aeruginosa; assay: Antimicrobial activity against Pseudomonas aeruginosa PAO1 at >200 ug/ml by microbroth dilution method
[3] = test system: Enterococcus faecalis; assay: Antimicrobial activity against Enterococcus faecalis ATCC 33186 by microbroth dilution method
[4] = test system: Escherichia coli; assay: Antimicrobial activity against Escherichia coli K-12 by microbroth dilution method
[5] = test system: Escherichia coli; assay: Antimicrobial activity against tolC-deficient Escherichia coli by microbroth dilution method
[6] = test system: Staphylococcus aureus; assay: Antimicrobial activity against methicillin-sensitive Staphylococcus aureus ATCC 29213 by microbroth dilution method
[7] = test system: Mycobacterium tuberculosis; assay: Antimicrobial activity against Mycobacterium tuberculosis H37Rv by microbroth dilution method
[8] = test system: Staphylococcus aureus; assay: Antimicrobial activity against methicillin-resistant Staphylococcus aureus NRS 70 by microbroth dilution method

SMILES | MIC [1] [µg/mL] | MIC [2] [µg/mL] | MIC [3] [µg/mL] | MIC [4] [µg/mL] | MIC [5] [µg/mL] | MIC [6] [µg/mL] | MIC [7] [µg/mL] | MIC [8] [µg/mL]
CCCCCCCCOc1ccccc1/C=C/C(=O)c1ccc(O)cc1O | > 200 | > 200 | 1.56 (≈ 4.23 µM) | > 200 | > 200 | 25 (≈ 67.8 µM) | > 200 | 6.25 (≈ 17 µM)
CCCCCCOc1cc(O)cc(O)c1C(=O)C(C)CC (racemic) | > 200 | > 200 | 1.56 (≈ 5.3 µM) | > 200 | 3.13 (≈ 10.6 µM) | 1.56 (≈ 5.3 µM) | 100 (≈ 340 µM) | 1.56 (≈ 5.3 µM)
CC1(C)C2CC=C(/C=C/C(=O)c3c(O)cc(O)cc3O)C1C2 (stereo unspecified) | > 200 | > 200 | 25 (≈ 83.2 µM) | > 200 | 6.25 (≈ 20.8 µM) | > 200 | > 200 | 200 (≈ 666 µM)
C=CCOc1cc(O)cc(O)c1C(=O)[C@@H](C)CC | > 200 | > 200 | 12.5 (≈ 49.9 µM) | – | 3.13 (≈ 12.5 µM) | 12.5 (≈ 49.9 µM) | – | 12.5 (≈ 49.9 µM)
C=CCOc1cccc(/C=C/C(=O)c2ccc(O)cc2O)c1 | > 200 | > 200 | > 200 | > 200 | 3.13 (≈ 10.6 µM) | 6.25 (≈ 21.1 µM) | 50 (≈ 169 µM) | 12.5 (≈ 42.2 µM)
C=CCOc1ccccc1/C=C/C(=O)c1ccc(O)cc1 | > 200 | > 200 | 100 (≈ 357 µM) | > 200 | 6.25 (≈ 22.3 µM) | 12.5 (≈ 44.6 µM) | 200 (≈ 713 µM) | 6.25 (≈ 22.3 µM)
C=CCOc1cc(O)cc(O)c1C(=O)C(C)CC (racemic) | > 200 | > 200 | – | > 200 | 3.13 (≈ 12.5 µM) | – | 100 (≈ 400 µM) | 6.25 (≈ 25 µM)
O=C1CC(C2CCCCC2)Oc2cc(O)cc(O)c21 (stereo unspecified) | > 200 | > 200 | 25 (≈ 95.3 µM) | > 200 | 6.25 (≈ 23.8 µM) | 25 (≈ 95.3 µM) | 100 (≈ 381 µM) | 25 (≈ 95.3 µM)
CCCCCCC1CC(=O)c2c(OCOC)cc(OCOC)cc2O1 (stereo unspecified) | > 200 | > 200 | > 200 | > 200 | 6.25 (≈ 17.7 µM) | > 200 | 50 (≈ 142 µM) | > 200
COCOc1ccc2c(c1)OC(C1=CCC3CC1C3(C)C)CC2=O (stereo unspecified) | > 200 | > 200 | > 200 | > 200 | 6.25 (≈ 19 µM) | > 200 | 100 (≈ 304 µM) | > 200
CCCC1CC(=O)c2ccc(O)cc2O1 (stereo unspecified) | > 200 | > 200 | > 200 | > 200 | 50 (≈ 242 µM) | 200 (≈ 970 µM) | 200 (≈ 970 µM) | > 200
CCCC1CC(=O)c2c(O)cc(O)cc2O1 (stereo unspecified) | > 200 | > 200 | 200 (≈ 900 µM) | > 200 | 50 (≈ 225 µM) | 100 (≈ 450 µM) | 200 (≈ 900 µM) | 100 (≈ 450 µM)
CCCCCCCCCC1C/C(=N\OC)c2c(O)cc(O)cc2O1 (stereo unspecified) | > 200 | > 200 | > 200 | > 200 | > 200 | 100 (≈ 298 µM) | 200 (≈ 596 µM) | 25 (≈ 74.5 µM)
O=C1CC2(CCCCC2)Oc2cc(O)ccc21 | > 200 | > 200 | > 200 | > 200 | 50 (≈ 215 µM) | 200 (≈ 861 µM) | 100 (≈ 431 µM) | 200 (≈ 861 µM)
O=C1CC(c2ccc(N3CCCCC3)cc2)Oc2cc(O)ccc21 (stereo unspecified) | > 200 | > 200 | 200 (≈ 618 µM) | > 200 | 12.5 (≈ 38.7 µM) | > 200 | > 200 | > 200
CC1(C)S[C@@H]2[C@H](NC(=O)[C@H](N)c3ccccc3)C(=O)N2[C@H]1C(=O)O [AMPICILLIN] | > 200 | > 200 | 0.78 (≈ 2.23 µM) | 3.13 (≈ 8.96 µM) | 1.56 (≈ 4.46 µM) | 1.56 (≈ 4.46 µM) | – | 12.5 (≈ 35.8 µM)
O=C(N[C@H](CO)[C@H](O)c1ccc([N+](=O)[O-])cc1)C(Cl)Cl [CHLORAMPHENICOL] | > 200 | > 200 | 0.78 (≈ 2.41 µM) | 3.13 (≈ 9.69 µM) | 0.39 (≈ 1.21 µM) | 3.13 (≈ 9.69 µM) | – | 1.56 (≈ 4.83 µM)
CCC(C)C(=O)c1c(O)cc(O)cc1OC/C=C(\C)CCC=C(C)C (racemic) | > 200 | > 200 | – | – | > 200 | – | 200 (≈ 577 µM) | 3.13 (≈ 9.03 µM)
CCCC1CC(=O)c2c(OCOC)cc(OCOC)cc2O1 (stereo unspecified) | > 200 | > 200 | > 200 | > 200 | 100 (≈ 322 µM) | > 200 | 100 (≈ 322 µM) | > 200
O=C1CC2(CCCCCC2)Oc2cc(O)ccc21 | > 200 | > 200 | 200 (≈ 812 µM) | > 200 | 12.5 (≈ 50.7 µM) | 50 (≈ 203 µM) | 100 (≈ 406 µM) | 50 (≈ 203 µM)
